This passage reports IC50 results from ChEMBL document CHEMBL5728354, “1,2-dihydro-3H-pyrazolo[3,4-d]pyrimidin-3-one derivative as Wee1 inhibitor” (2021).

The target of the assay is Wee1-like protein kinase (Homo sapiens, UniProt P30291). Briefly: In Vitro Enzymatic Inhibitory Activity Assay: Experimental Reagents:Basic reaction buffer: 20 mM hydroxyethylpiperazine ethanesulfuric acid (pH 7.5), 10 mM magnesium chloride, 1 mM EGTA, 0.02% Brij35, 0.02 mg/mL bovine serum albumin, 0.1 mM Na3VO4, 2 mM DTT, 1% DMSOEnzyme: Wee-1 concentration is 150 nMMatrix: MBP concentration is 20 μMCompound Treatment:The tested compound was formulated into a 5 mM solution with 100% DMSO, and a 10 points 3-fold gradient dilution was performed with DMSO through an automated pipetting station epMotion 5070.Experiment Procedure:1. Fresh matrix configuration reaction buffer was prepared;2. The Wee-1 was added into the matrix solution and shaked gently;3. DMSO solution of the compound were added into the kinase reaction mixture using an acoustic technique (Echo 550; nanoliter range) and incubated for 20 minutes at room temperature;4. 33P-ATP (specific activity, 10 μCi/μL) was added into the reaction mixture to stimulate the reaction;5. Incubated for 2 hours at room temperature;6. Kinase activity was detected by filter-binding method.
Chain of Wee1-like protein kinase (P30291 whole entry): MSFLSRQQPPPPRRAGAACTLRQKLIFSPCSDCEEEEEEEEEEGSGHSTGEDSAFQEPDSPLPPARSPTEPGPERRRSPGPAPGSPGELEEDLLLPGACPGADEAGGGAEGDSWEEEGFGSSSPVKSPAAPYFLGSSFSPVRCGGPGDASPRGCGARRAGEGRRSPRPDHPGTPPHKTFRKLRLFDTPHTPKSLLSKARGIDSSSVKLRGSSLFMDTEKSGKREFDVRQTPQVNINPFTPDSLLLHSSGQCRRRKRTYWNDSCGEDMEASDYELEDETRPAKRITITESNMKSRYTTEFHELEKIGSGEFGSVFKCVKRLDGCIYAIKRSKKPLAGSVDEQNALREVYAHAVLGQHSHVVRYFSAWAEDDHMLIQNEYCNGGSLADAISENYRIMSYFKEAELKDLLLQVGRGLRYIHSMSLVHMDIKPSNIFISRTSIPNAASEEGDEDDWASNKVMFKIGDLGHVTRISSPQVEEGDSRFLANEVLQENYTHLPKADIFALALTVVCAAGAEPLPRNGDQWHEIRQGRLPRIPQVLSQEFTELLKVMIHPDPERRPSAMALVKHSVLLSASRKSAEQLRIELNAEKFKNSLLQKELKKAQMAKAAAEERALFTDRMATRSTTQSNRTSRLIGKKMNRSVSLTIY

In the case of `C=CCn1c(=O)c2cnc(Nc3ccc(N4CCC5(CCN(C)CC5)CC4)cn3)nc2n1-c1cccc(C(C)(C)O)n1`, the half-inhibitory concentration (IC50) was 64.6 nM.
As for `C=CCn1c2nc(Nc3ccc(N4CCC5(CCN(C)CC5)CC4)cc3)ncc2c(=O)n1-c1ccccc1Cl`, the IC50 was found to be 620 nM.
As for `C=CCn1c(=O)c2cnc(Nc3ccc(N4CCC5(CCN(C)CC5)CC4)cc3)nc2n1-c1cnccn1`, the IC50 was 90.4 nM.

A word on the IC50: it is the concentration needed to halve the response being measured.
